Data published in US20170152226A1, “FUNCTIONALISED AND SUBSTITUTED INDOLES AS ANTI-CANCER AGENTS” (Novogen Ltd., priority 2014, published 2017).

Experiments:
Type in all cases: cell-based
SKMEL13 = experiment: Anti-proliferative activity, MTS viability assay; settings: 72 hours exposure, read-out: IC50 Melanoma SKMEL13
Method: (§1) The anti-proliferative activity of compound 3507 was further evaluated in cell lines representative of melanoma, prostate cancer, leukaemia and neuroblastoma. Cell viability after 72 hours exposure to increasing concentrations of compound 3507 was measured using an MTS viability assay. Cell viability was normalized to control (vehicle alone) and dose-response curves, and relative inhibitory concentration (IC50) values were determined using GraphPad Prism 6.

THP-1 = experiment: Anti-proliferative activity, MTS viability assay; settings: Homo sapiens, 72 hours exposure, read-out: IC50 Leukemia THP-1
Method: as §1

K562 = experiment: Anti-proliferative activity, MTS viability assay; settings: Homo sapiens, 72 hours exposure, read-out: IC50 Leukemia K562
Method: as §1

HL-60 = experiment: Anti-proliferative activity, MTS viability assay; settings: Homo sapiens, 72 hours exposure, read-out: IC50 Leukemia HL-60
Method: as §1

BPH-1 = experiment: Anti-proliferative activity, MTS viability assay; settings: Homo sapiens, 72 hours exposure, read-out: IC50 Prostate BPH-1
Method: as §1

CHLA-90 = experiment: Anti-proliferative activity, MTS viability assay; settings: 72 hours exposure, read-out: IC50 Neuroblastoma CHLA-90
Method: as §1

CHP-134 = experiment: Anti-proliferative activity, MTS viability assay; settings: Homo sapiens, 72 hours exposure, read-out: IC50 Neuroblastoma CHP-134
Method: as §1

BL = experiment: Anti-proliferative activity, MTS viability assay; settings: 72 hours exposure, read-out: IC50 Melanoma BL
Method: as §1

D20 = experiment: Anti-proliferative activity, MTS viability assay; settings: 72 hours exposure, read-out: IC50 Melanoma D20
Method: as §1

A2058 = experiment: Anti-proliferative activity, MTS viability assay; settings: Homo sapiens, 72 hours exposure, read-out: IC50 Melanoma A2058
Method: as §1

MM415 = experiment: Anti-proliferative activity, MTS viability assay; settings: 72 hours exposure, read-out: IC50 Melanoma MM415
Method: as §1

P4E6 = experiment: Anti-proliferative activity, MTS viability assay; settings: 72 hours exposure, read-out: IC50 Prostate P4E6
Method: as §1

MM96L = experiment: Anti-proliferative activity, MTS viability assay; settings: Homo sapiens, 72 hours exposure, read-out: IC50 Melanoma MM96L
Method: as §1

CHLA-20 = experiment: Anti-proliferative activity, MTS viability assay; settings: 72 hours exposure, read-out: IC50 Neuroblastoma CHLA-20
Method: as §1

SK-N-Be(2) = experiment: Anti-proliferative activity, MTS viability assay; settings: Homo sapiens, SKNBE2, 72 hours exposure, read-out: IC50 Neuroblastoma SK-N-Be(2)
Method: as §1

LNCaP = experiment: Anti-proliferative activity, MTS viability assay; settings: Homo sapiens, 72 hours exposure, read-out: IC50 Prostate LNCaP
Method: as §1

MM329 = experiment: Anti-proliferative activity, MTS viability assay; settings: 72 hours exposure, read-out: IC50 Melanoma MM329
Method: as §1

IL-17A = experiment: Inhibition of cytokine release from PBMCs (HTRF); settings: PBMC, human PBMCs, PMA and ionomycin stimulated
Method: (§2) The ability of compounds 3507, 3520, 3534 and 3538 to inhibit the release of cytokines TNF-α, IFN-γ, IL-6, IL-21, IL-17A and IL-23 was evaluated in vitro (Tables 4 and 5). Briefly, human peripheral blood mononuclear cells (PBMCs) were isolated from human peripheral blood by Histopaque density gradient centrifugation. The freshly isolated PBMCs were seeded at 50,000 cells/well in a 96-well half area plate. PBMCs were dosed with the test compounds (at 10 μM, 1 μM and 0.1 μM) and then incubated at 37° C. and 5% CO2 for 2 hours. To stimulate release of the cytokines IFN-γ, IL-21, IL-17A and IL-23, the PBMCs were treated with 50 ng/mL of phorbol 12-myristate 13-acetate (PMA) and 1 μg/mL of ionomycin and to stimulate the release of TNF-α and IL-6, PBMCs were treated with 100 ng/mL of lipopolysaccharide (LPS) from gram-negative bacteria. The PBMCs were then incubated at 37° C. and 5% CO2 for a further 6 hours and the cell supernatant was collected and a Homogenous Time Resolved Fluorescence (HTRF) assay was carried out following the manufacturer's instructions. Cytokine release from the PBMCs was captured using a Perkin Elmer ENVISION 2104 microplate reader set at 615 nm and 665 nm respectively.

IL-6 = experiment: Inhibition of cytokine release from PBMCs (HTRF); settings: PBMC, human PBMCs, LPS stimulated
Method: as §2

IL-21 = experiment: Inhibition of cytokine release from PBMCs (HTRF); settings: PBMC, human PBMCs, PMA and ionomycin stimulated
Method: as §2

IL-23 = experiment: Inhibition of cytokine release from PBMCs (HTRF); settings: PBMC, human PBMCs, PMA and ionomycin stimulated
Method: as §2

TNF-α = experiment: Inhibition of cytokine release from PBMCs (HTRF); settings: PBMC, human PBMCs, LPS stimulated
Method: as §2

IFN-γ = experiment: Inhibition of cytokine release from PBMCs (HTRF); settings: PBMC, human PBMCs, PMA and ionomycin stimulated
Method: as §2

Structure (SMILES): Cc1c(C)n(CCCN2CCN(C)CC2)c2ccc(Oc3cccc(C(=O)N4CCN(CCc5ccc(F)cc5)CC4)c3)cc12 [Compound 3507, (3-((2,3-dimethyl-1-(3-(4-methylpiperazin-1-yl)propyl)-1H-indol-5-yl)oxy)phenyl)(4-(4-fluorophenethyl)piperazin-1-yl)methanone]
- IC50 (SKMEL13): 3.72 µM
- IC50 (THP-1): 0.8 µM
- IC50 (K562): 0.95 µM
- IC50 (HL-60): 1.16 µM
- IC50 (BPH-1): 0.72 µM
- IC50 (CHLA-90): 4.24 µM
- IC50 (CHP-134): 7.2 µM
- IC50 (BL): 5.83 µM
- IC50 (D20): 5.01 µM
- IC50 (A2058): 4.06 µM
- IC50 (MM415): 4.67 µM
- IC50 (P4E6): 0.87 µM
- IC50 (MM96L): 3.27 µM
- IC50 (CHLA-20): 6.9 µM
- IC50 (SK-N-Be(2)): 5.47 µM
- IC50 (LNCaP): 0.59 µM
- IC50 (MM329): 3.8 µM
- inhibition at 0.1 µM (IL-17A; 0.1 μM): 2%
- inhibition at 1 µM (IL-17A; 1 μM): 4%
- inhibition at 10 µM (IL-17A; 10 μM): 13%
- inhibition at 0.1 µM (IL-6; 0.1 μM): -9%
- inhibition at 1 µM (IL-6; 1 μM): 21%
- inhibition at 10 µM (IL-6; 10 μM): 68%
- inhibition at 0.1 µM (IL-21; 0.1 μM): -6%
- inhibition at 1 µM (IL-21; 1 μM): 5%
- inhibition at 10 µM (IL-21; 10 μM): 19%
- inhibition at 0.1 µM (IL-23; 0.1 μM): -7%
- inhibition at 1 µM (IL-23; 1 μM): 0%
- inhibition at 10 µM (IL-23; 10 μM): 20%
- inhibition at 0.1 µM (TNF-α; 0.1 μM): 52%
- inhibition at 1 µM (TNF-α; 1 μM): 68%
- inhibition at 10 µM (TNF-α; 10 μM): 90%
- inhibition at 0.1 µM (IFN-γ; 0.1 μM): 16%
- inhibition at 1 µM (IFN-γ; 1 μM): 42%
- inhibition at 10 µM (IFN-γ; 10 μM): 77%
